Converted amounts (≈) assume the structure as drawn.
Experiments:
E. coli (ΔtolC) = assay type: cell-based; settings: for MIC E. coli (ΔtolC): knockout of efflux pump component TolC; for MIC E. coli (ΔtolC) +PMBN: PMBN 8 μg/mL
[1] = test system: P. aeruginosa (ΔmexAB, etc.); assay type: cell-based; settings: knockouts of MexAB-OprM, MexCD-OprJ, MexEF-OprN
pKa = assay type: physicochemical
[2] = test system: P. aeruginosa mexT mutants; assay type: cell-based; settings: for potency reduction by any mexT mutation: any of the three individual mexT mutations
E. coli (ATCC 25922) = experiment: Bacterial Cytological Profiling; assay type: cell-based; settings: ~3-fold the MIC for 2 hours (for 1); fluorescence microscopy
P. aeruginosa BC = P. aeruginosa BC (Pseudomonas aeruginosa, UniProt P37798); experiment: P. aeruginosa BC enzyme assay; settings: relative to parent 4a
Sequence of P. aeruginosa BC (P37798 whole entry): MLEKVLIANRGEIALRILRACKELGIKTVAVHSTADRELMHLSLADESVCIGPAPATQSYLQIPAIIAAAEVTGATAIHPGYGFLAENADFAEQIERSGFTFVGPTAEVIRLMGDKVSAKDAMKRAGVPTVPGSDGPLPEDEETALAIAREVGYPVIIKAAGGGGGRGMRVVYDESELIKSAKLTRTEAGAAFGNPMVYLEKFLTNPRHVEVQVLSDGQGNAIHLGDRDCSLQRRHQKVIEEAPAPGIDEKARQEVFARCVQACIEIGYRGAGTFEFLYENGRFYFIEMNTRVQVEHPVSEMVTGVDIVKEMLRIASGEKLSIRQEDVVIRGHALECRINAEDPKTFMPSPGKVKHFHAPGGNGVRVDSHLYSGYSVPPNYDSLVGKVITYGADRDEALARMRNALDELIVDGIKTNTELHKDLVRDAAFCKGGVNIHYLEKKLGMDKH

SMILES | MIC E. coli (ΔtolC) (E. coli (ΔtolC)) | MIC P. aeruginosa (ΔmexAB, etc.) [1] | MIC E. coli (ΔtolC) +PMBN (E. coli (ΔtolC)) | further results
Cc1ncc(-c2cccc(Cl)c2-c2cc3cnc(N)nc3nc2N2C[C@@H]3[C@@H](N)[C@@H]3C2)s1 [14d, 7-[(1R,5S)-6-amino-3-azabicyclo[3.1.0]hexan-3-yl)-6-[2-chloro-6-(2-methylthiazol-5-yl)phenyl]pyrido[2,3-d]pyrimidin-2-amine] | 0.008 µg/mL (≈ 0.0178 µM) | 1 µg/mL (≈ 2.22 µM) |  | 
Nc1ncc2cc(-c3c(Br)cccc3Br)c(N)nc2n1 [compound 1, reference compound] | 0.5 µg/mL (≈ 1.27 µM) | 16 µg/mL (≈ 40.5 µM) | 0.12 µg/mL (≈ 0.304 µM) | pKa (pKa): 4.8; potency reduction by any mexT mutation [2]: > 8 fold
O=C(O)c1cn(C2CC2)c2cc(N3CCNCC3)c(F)cc2c1=O [ciprofloxacin, reference compound] |  |  |  | resistance of mexT mutants to the antibiotic ([2]; data not shown): elevated resistance
CC(C)COc1cccc(Cl)c1-c1cc2cnc(N)nc2nc1N1C[C@@H]2[C@@H](N)[C@@H]2C1 [14e, 7-[(1R,5S)-6-amino-3-azabicyclo[3.1.0]hexan-3-yl)-6-(2-chloro-6-isobutoxy-phenyl)pyrido[2,3-d]pyrimidin-2-amine] | 0.03 µg/mL (≈ 0.0706 µM) |  | 0.015 µg/mL (≈ 0.0353 µM) | cytological profile (E. coli (ATCC 25922)): cytological profiles very similar to each other and to parent compound 1; potency reduction by any mexT mutation [2]: unaffected
Nc1ncc2cc(-c3c(Cl)cccc3-c3cccnc3)c(N)nc2n1 [4d, 6-[2-chloro-6-(3-pyridyl)phenyl]pyrido[2,3-d]pyrimidine-2,7-diamine] |  | 4 µg/mL (≈ 11.5 µM) |  | 
Nc1ncc2cc(-c3c(Cl)cccc3Cl)c(N)nc2n1 [4a] | 0.5 µg/mL (≈ 1.63 µM) | 16 µg/mL (≈ 52.3 µM) | 0.25 µg/mL (≈ 0.817 µM) | 
Nc1ncc2cc(-c3ccccc3-c3cccnc3)c(N)nc2n1 [4c, 6-[2-(3-pyridyl)phenyl]pyrido[2,3-d]pyrimidine-2,7-diamine] | 2 µg/mL (≈ 6.36 µM) | 16 µg/mL (≈ 50.9 µM) | 0.5 µg/mL (≈ 1.59 µM) | 
NCC1(O)CCN(c2nc3nc(N)ncc3cc2-c2c(Cl)cccc2Cl)C1 (stereo not drawn) [13e, 1-[2-amino-6-(2,6-dichlorophenyl)pyrido[2,3-d]pyrimidin-7-yl]-3-(aminomethyl)pyrrolidin-3-ol] | 1 µg/mL (≈ 2.47 µM) | >64 µg/mL |  | 
CC(C)COc1cccc(Cl)c1-c1cc2cnc(N)nc2nc1N [4f, 6-(2-chloro-6-isobutoxy-phenyl)pyrido[2,3-d]pyrimidine-2,7-diamine] | 0.25 µg/mL (≈ 0.727 µM) |  |  | 
Nc1ncc2cc(-c3c(Cl)cccc3Cl)c(N3C[C@@H]4[C@@H](N)[C@@H]4C3)nc2n1 [13h, 7-((1R,5S,6s)-6-amino-3-azabicyclo[3.1.0]hexan-3-yl)-6-(2,6-dichlorophenyl)pyrido[2,3-d]pyrimidin-2-amine] |  |  |  | improvement in BC inhibition (IC50) compared to 4a (P. aeruginosa BC): ~10 fold
COc1ncc(-c2cccc(Cl)c2-c2cc3cnc(N)nc3nc2N2C[C@@H]3[C@@H](N)[C@@H]3C2)cc1F [14c, 7-[(1R,5S)-6-amino-3-azabicyclo[3.1.0]hexan-3-yl)-6-[2-chloro-6-(5-fluoro-6-methoxy-3-pyridyl)phenyl]pyrido[2,3-d]pyrimidin-2-amine] | 0.015 µg/mL (≈ 0.0314 µM) | 2 µg/mL (≈ 4.18 µM) | 0.008 µg/mL (≈ 0.0167 µM) | 
Nc1ncc2cc(-c3c(Cl)cccc3-c3cccnc3)c(N3C[C@@H]4[C@@H](N)[C@@H]4C3)nc2n1 [14a, 7-[(1R,5S)-6-amino-3-azabicyclo[3.1.0]hexan-3-yl)-6-[2-chloro-6-(3-pyridyl)phenyl]pyrido[2,3-d]pyrimidin-2-amine] | 0.03 µg/mL (≈ 0.0698 µM) |  |  | potency reduction by any mexT mutation [2]: unaffected
Nc1ncc2cc(-c3ccccc3-c3ccccc3)c(N)nc2n1 [4b, 6-([1,1'-biphenyl]-2-yl)pyrido[2,3-d]pyrimidine-2,7-diamine] | 0.5 µg/mL (≈ 1.6 µM) |  | 0.25 µg/mL (≈ 0.798 µM) | 
NCC1CCN(c2nc3nc(N)ncc3cc2-c2c(Cl)cccc2Cl)CC1 [13g, 7-[4-(aminomethyl)-1-piperidyl]-6-(2,6-dichlorophenyl)pyrido[2,3-d]pyrimidin-2-amine] | 1 µg/mL (≈ 2.48 µM) | 64 µg/mL (≈ 159 µM) |  | 
Nc1ncc2cc(-c3c(Cl)cccc3Cl)c(N3CCC(N)(CO)C3)nc2n1 (stereo not drawn) [13c, [3-amino-1-[2-amino-6-(2,6-dichlorophenyl)pyrido[2,3-d]pyrimidin-7-yl]pyrrolidin-3-yl]methanol] | 1 µg/mL (≈ 2.47 µM) |  |  | 
Nc1ncc2cc(-c3c(Cl)cccc3-c3ccncc3)c(N3C[C@@H]4[C@@H](N)[C@@H]4C3)nc2n1 [14b, 7-[(1R,5S)-6-amino-3-azabicyclo[3.1.0]hexan-3-yl)-6-[2-chloro-6-(4-pyridyl)phenyl]pyrido[2,3-d]pyrimidin-2-amine] | 0.03 µg/mL (≈ 0.0698 µM) | 2 µg/mL (≈ 4.65 µM) | 0.015 µg/mL (≈ 0.0349 µM) | 
NCC1CCN(c2nc3nc(N)ncc3cc2-c2c(Cl)cccc2Cl)C1 (stereo not drawn) [13f, 7-[3-(aminomethyl)pyrrolidin-1-yl]-6-(2,6-dichlorophenyl)pyrido[2,3-d]pyrimidin-2-amine] |  |  |  | improvement in BC inhibition (IC50) compared to 4a (P. aeruginosa BC): 5 fold; cytological profile (E. coli (ATCC 25922)): cytological profiles very similar to each other and to parent compound 1
NCC1(F)CCN(c2nc3nc(N)ncc3cc2-c2c(Cl)cccc2Cl)C1 (stereo not drawn) [13d, 7-[3-(aminomethyl)-3-fluoro-pyrrolidin-1-yl]-6-(2,6-dichlorophenyl)pyrido[2,3-d]pyrimidin-2-amine] |  |  | 1 µg/mL (≈ 2.46 µM) | 

From publication PMC6980355 (Journal of medicinal chemistry, 2019)
